Results: patent EP1760056A1, “A convenient method for the preparation of no-carrier-added O-(2-[18F]fluoroethyl)-L-Tyrosine)” (Institute of Nuclear Energy Research, priority 2005, dated 2007)
Where two headings read alike, the source gives them in different places.

How the values were obtained:
F98 glioma cells [1] = experiment: L-[18F]FET uptake by F98 glioma tumor cells; format: cell-based, rat; conditions: 10 µCi/well
Experimental: • (1) In five six-well plates, put 1×10^6 F98 glioma cells and 2 ml DMEM (1g glucose/1) into three wells. • (2) Total of five time points (2, 5, 10, 30 minute and 1hour) in this experiment and each time point use one six-well plate. • (3) Predetermined activity of L-[^18F]FET or [^18F]FDG (10 µCi/well) is added into each well during the experiment. […] F98 glioma cells intake L-[^18F]FET rapidly and maximal accumulation will reach after 10 minutes (uptake ratio 0.47%). As cell cannot metabolize L-[^18F]FET, therefore, the rate of L-[^18F]FET transportation by the cells become balance after ten minutes when add L-[^18F]FET; the accumulation of L-[^18F]FET in glioma cells only slightly decrease after 1 hour (uptake ratio 0.41%).

brain tumor (F98 glioma) = experiment: PET and microPET imaging of tumor-bearing rat with L-[18F]FET; format: in vivo, rat (Fischer 344); conditions: 400 µCi into tail vein
Experimental: • (1) Positron emission tomography (PET) studies of tumor-bearing rat (Fischer 344) with L-[^18F]FET will be carry out after 11~12 days of brain tumor (F98 glioma) implantation. • (2) Producing processes of L-[^18F]FET as described above, and estimates its administrating amount of agent according to the level of radioactivity. • (3) At the very beginning, inject 400 µCi of L-[^18F]FET into tail vein. Temporarily anesthetize rats with ether at time of 0.5, 1, 1.5 and 2 hours. Fix rat on transparent acrylic board and place on PET table after securing stretched limbs on the board. Continuously anesthetize rats with isoflurane gas. Align implant portion of head with PET machine as to assure the fixation of original imaging position. • (4) Adjust background value by blank scan before PET imaging. • (5) Use Ga-68 radioactive source proceed transmission scan for adjust tissue attenuation. • (6) Commence PET and microPET imaging. Perform image processing after reconstruction of acquired image data; the coronal and cross section scans show in Figure 3 and 9. […] In contrast to tumor site, normal tissue have lower radioactivity accumulation of L-[^18F]FET because of lower amino acid requirement.

F98 glioma cells [2] = experiment: Biological distribution of L-[18F]FET in F98 glioma-bearing Fischer 344 rat; conditions: in vivo
Experimental: (§1) • (1) Total of twenty Fischer 344 male rats will be assessed in vivo for L-[^18F]FET biological distribution. Use the intersection of bregma and sagittal midlines as original point; so as to implant F98 glioma cells (1 × 10^5cells /10 µl) at the place of 3mm left 5mm upward and 5mm depth. Biological distribution test will be carry out after 11~12 days of brain tumor implantation. • (2) Different volume of radioactive level is injected, injected volume of L-[^18F]FET for each Fischer 344 rat is 200~300µl, that is approximately 200~250 µCi of activity. • (3) Inject L-[^18F]FET via tail vein, and rats are sacrificed at 15, 30, 60, 90 and 120 minutes. • (4) Dissection of rat organ is right after sacrifice. Scissors off chest and abdomen fur alone the line from genital pore upward to jowl. Next, scissors off chest above xiphisternal transversely. Open ribs aside, take blood sample from venous sinus with 0.5 ml syringe. Withdraw the needle after depletion of blood and collect the extracted heart. Collect the lung lobes with forcep. • (5) Scissors off abdominal muscle from genital pore upward to the position below xiphisternal longitudinally. Then, scissors off the opening of upper and lower edges transversely, everts muscle layers to both sides and expose celiac organs. Search for bladder in lower abdomen and sequentially removes stomach, liver, spleen, small intestine, large intestine, kidney, and muscle. • (6) After turn over the rat, scissors off fur of shoulder and removes exposed subcutaneous tumor. Cut scalp upward at lower margin of cranium above foramen magnum and expose cranial bone. Then, cut cervical portion transversely at foramen magnum and expose spinal cord. Inserts foramen magnum with scissors' tip while attach the inner surface of cranium; such that scissors' tip can reach the frontal edge of cranial cavity in order to scissor off the center of cranium. Use scissors to open cranium aside and expose brain tissue. Alone skull base insert scissors deeply to the front edge of cranial cavity in order to remove left-brain, right-brain and brain tumor. • (7) Weight all organ samples; measure radioactivity with γ-counter and convert to %ID/g (% injection dose/g organ) of each organ for estimate the biological distribution of L-[^18F]FET. […] According to reports, L-[^18F]FET can pass through blood brain barrier (BBB) and enter brain by way of L amino acid transporter system. […] Tumor-to-normal brain ratio of L-[^18F]FET at 15, 30, 60, 90 and 120 minutes are 1.54, 1.74, 3.16, 3.14 and 2.34 respectively. Besides brain tumor, rat pancreas also accumulate large amount of L-[^18F]FET (0.98, 1.76, 2.55, 2.28 and 2.24 %ID/g respectively at 15, 30, 60, 90 and 120 minutes); the increasing radioactivity of L-[^18F]FET in pancreas is because of pancreas require large amount of amino acid for synthesis various enzymes and hormones. Some papers reported that patient with tumor observes no significant accumulation of radioactivity in pancreas when use positron emission tomography (PET), the discrepant results were assumed that human and rat have different metabolic pathway. Furthermore, biological distribution study of L-[^18F]FET indicated radioactivity accumulation in tumor cells (expressed by %ID/g) are much higher than other normal organs (left-brain, small intestine, kidney, liver, blood and muscle) except pancreas, this means L-[^18F]FET can be a potential PET agent for substantially different site of tumor. […] Table 1: Determination of accumulated radioactivity (%ID/g) in organs at different time points after injected L-[18F]FET into tumor-bearing rat

[3] = as above; conditions: in vivo, iv; for tissue uptake at 0.25 h: 15 min after injection via tail vein; for tissue uptake at 0.5 h: 30 min after injection via tail vein; for tissue uptake at 1 h: 60 min after injection via tail vein; for tissue uptake at 2 h: 120 min after injection via tail vein
Experimental: as §1

[4] = Liver, read-out: accumulated radioactivity
[5] = Lung, read-out: accumulated radioactivity
[6] = Muscle, read-out: accumulated radioactivity
[7] = Pancreas, read-out: accumulated radioactivity
[8] = Right brain, read-out: accumulated radioactivity

With `N[C@@H](Cc1ccc(OCC[18F])cc1)C(=O)O` [L-[^18F]FET, O-(2-[^18F]fluoroethyl)-L-Tyrosine] the uptake ratio (F98 glioma cells [1]; after 10 minutes (maximal accumulation)) was 0.47%, the uptake ratio (F98 glioma cells [1]; after 1 hour) was 0.41% and the “radioactivity accumulation in brain tumor” value (brain tumor (F98 glioma)) was “significant radioactivity accumulation in brain tumor”. The “time of maximum uptake in brain tumor” value (brain tumor (F98 glioma); time after injection) was 90 min, the Tumor-to-normal brain ratio (F98 glioma cells [2]; 15 min) was 1.54 and the Tumor-to-normal brain ratio (F98 glioma cells [2]; 30 min) was 1.74. It also gave a Tumor-to-normal brain ratio (F98 glioma cells [2]; 60 min) of 3.16, a Tumor-to-normal brain ratio (F98 glioma cells [2]; 90 min) of 3.14 and a Tumor-to-normal brain ratio (F98 glioma cells [2]; 120 min) of 2.34. The tissue uptake at 0.25 h [3, 4] was 0.27 ± 0.06 %ID/g, the tissue uptake at 0.5 h [3, 4] was 0.37 ± 0.07 %ID/g and the tissue uptake at 1 h [3, 4] was 0.41 ± 0.06 %ID/g. For the same compound, the tissue uptake at 1.5 h ([3]; Liver, 90 min after injection via tail vein, read-out: accumulated radioactivity) was 0.49 ± 0.01 %ID/g, the tissue uptake at 2 h [3, 4] was 0.41 ± 0.09 %ID/g and the tissue uptake at 0.25 h [3, 5] was 0.32 ± 0.05 %ID/g. The tissue uptake at 0.5 h [3, 5] was 0.43 ± 0.09 %ID/g, the tissue uptake at 1 h [3, 5] was 0.43 ± 0.07 %ID/g and the tissue uptake at 1.5 h ([3]; Lung, 90 min after injection via tail vein, read-out: accumulated radioactivity) was 0.45 ± 0.02 %ID/g. It also gave a tissue uptake at 2 h [3, 5] of 0.4 ± 0.06 %ID/g, a tissue uptake at 0.25 h [3, 6] of 0.19 ± 0.03 %ID/g and a tissue uptake at 0.5 h [3, 6] of 0.28 ± 0.01 %ID/g. For the same compound, the tissue uptake at 1 h [3, 6] was 0.36 ± 0.04 %ID/g, the tissue uptake at 1.5 h ([3]; Muscle, 90 min after injection via tail vein, read-out: accumulated radioactivity) was 0.44 ± 0.1 %ID/g and the tissue uptake at 2 h [3, 6] was 0.37 ± 0.1 %ID/g. For the same compound, the tissue uptake at 0.25 h [3, 7] was 0.98 %ID/g, the tissue uptake at 0.5 h [3, 7] was 1.76 %ID/g and the tissue uptake at 1 h [3, 7] was 2.55 %ID/g. For the same compound, the tissue uptake at 1.5 h ([3]; Pancreas, 90 min after injection via tail vein, read-out: accumulated radioactivity) was 2.28 %ID/g, the tissue uptake at 2 h [3, 7] was 2.24 %ID/g and the tissue uptake at 0.25 h [3, 8] was 0.07 ± 0.02 %ID/g. It also gave a tissue uptake at 0.5 h [3, 8] of 0.21 ± 0.03 %ID/g, a tissue uptake at 1 h [3, 8] of 0.34 ± 0.03 %ID/g and a tissue uptake at 1.5 h ([3]; Right brain, 90 min after injection via tail vein, read-out: accumulated radioactivity) of 0.48 ± 0.08 %ID/g. For the same compound, the tissue uptake at 2 h [3, 8] was 0.34 ± 0.04 %ID/g and the tissue uptake at 1.5 h ([3]; maximum accumulation in normal brain tissue) was 0.48 %ID/g.
